Results: the supplement of paper PMC10307832

Legend:
Experiment in all cases: relative viability (nuclei count vs DMSO), 5 days (fraction); higher = more cells survive
[1] = compound: COc1cc2nc(N3CCCN(C)CC3)nc(NC3CCN(Cc4ccccc4)CC3)c2cc1OC + N=C(N)NC(=N)NCCc1ccccc1 [Phenformin] (partner 250 µM)
Outline: (§1)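 A single step with final 0.05% Triton X-100, 1% formaldehyde and 1 ug/ml Hoechst fixed the cells and stained nuclei 5 days after treatment. Lung cancer cell lines in 1536-well plates had been treated by pin tool the day after seeding with one drug alone or a fixed anchor-drug dose plus five library-drug doses (not always all listed) in √10 steps, and nuclei were counted on 4× images. Relative viability is the ratio of nuclei in treated wells to nuclei in vehicle wells, taken as the median of duplicate plates.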

[2] = compound: COc1cc2nc(N3CCCN(C)CC3)nc(NC3CCN(Cc4ccccc4)CC3)c2cc1OC + O=C(CCCCCCC(=O)Nc1ccccc1)NO [Vorinostat] (partner 1 µM)
Outline: as §1

[3] = compound: Cc1cc([C@@H](C)Nc2ccccc2C(=O)O)c2nc(N3CCOCC3)cc(=O)n2c1 [AZD6482] + CS(=O)(=O)CCNCc1ccc(-c2ccc3ncnc(Nc4ccc(OCc5cccc(F)c5)c(Cl)c4)c3c2)o1 [Lapatinib] (partner 2 µM)
Outline: as §1

[4] = compound: Cc1cc([C@@H](C)Nc2ccccc2C(=O)O)c2nc(N3CCOCC3)cc(=O)n2c1 [AZD6482] + O=C(CCCCCCC(=O)Nc1ccccc1)NO [Vorinostat] (partner 1 µM)
Outline: as §1

| Cell Line | relative viability ([1]; first compound 0.2 µM) | relative viability ([1]; first compound 0.6325 µM) | relative viability ([1]; first compound 2 µM) | relative viability ([1]; first compound 6.325 µM) | relative viability ([2]; first compound 0.2 µM) | relative viability ([2]; first compound 0.6325 µM) | relative viability ([2]; first compound 2 µM) | relative viability ([2]; first compound 6.325 µM) | relative viability ([3]; first compound 0.08 µM) | relative viability ([3]; first compound 0.253 µM) | relative viability ([3]; first compound 0.8 µM) | relative viability ([3]; first compound 8 µM) | relative viability ([4]; first compound 0.08 µM) | relative viability ([4]; first compound 0.253 µM) | relative viability ([4]; first compound 0.8 µM) | relative viability ([4]; first compound 2.53 µM) | relative viability ([4]; first compound 8 µM) | relative viability ([3]; first compound 2.53 µM) |
| --- | --- | --- | --- | --- | --- | --- | --- | --- | --- | --- | --- | --- | --- | --- | --- | --- | --- | --- |
| NCI-H520 | 0.558 | 0.7 | 0.499 | 0.252 | 0.77 | 0.77 | 0.586 | 0.209 | 0.644 | 0.397 | 0.619 | 0.263 | 0.599 | 0.467 | 0.496 | 0.273 | 0.319 | – |
| NCI-H647 | 0.586 | 0.727 | 0.673 | 0.366 | 0.588 | 0.669 | 0.614 | 0.24 | 0.843 | – | 0.804 | 0.744 | 0.63 | 0.55 | 0.473 | 0.41 | 0.619 | 0.524 |
| SK-LU-1 | 0.537 | 0.517 | 0.616 | 0.462 | 0.832 | 0.747 | 0.844 | 0.641 | – | 0.76 | 0.849 | 0.513 | – | 0.767 | 0.812 | 0.591 | 0.517 | 0.687 |
| NCI-H1650 | 0.494 | 0.612 | 0.379 | 0.369 | 0.66 | 0.656 | 0.747 | 0.465 | 0.754 | – | 0.688 | 0.681 | 0.512 | 0.629 | 0.805 | 0.437 | 0.632 | 0.602 |
| NCI-H2009 | 0.471 | 0.447 | 0.56 | 0.385 | 0.803 | 0.762 | 0.767 | 0.569 | 1.1 | 1 | 1.04 | 0.815 | 0.583 | 0.775 | 0.665 | 0.501 | 0.573 | 0.579 |
| LOU-NH91 | 0.643 | 0.803 | 0.506 | 0.674 | 0.942 | 1.06 | 0.845 | 0.827 | 0.626 | 0.752 | 0.681 | 0.494 | 0.852 | 0.92 | 0.834 | 0.602 | 0.712 | 0.501 |
| NCI-H2405 | 0.425 | 0.444 | 0.421 | 0.371 | 1.01 | 0.989 | 1.02 | 0.976 | 0.69 | – | 1.12 | 0.483 | 0.762 | 0.9 | 1.03 | 0.644 | 0.501 | 0.627 |
| LCLC-97TM1 | 0.432 | 0.401 | 0.503 | 0.465 | 0.801 | 0.649 | 1 | 0.69 | 1.04 | 1.01 | 1.28 | 0.462 | 0.616 | 0.703 | 0.565 | – | 0.583 | 0.271 |
| NCI-H596 | 0.724 | 0.756 | 0.696 | 0.798 | 0.623 | 0.717 | 0.591 | 0.57 | 0.722 | 0.953 | 1.06 | 0.853 | 0.464 | 0.555 | 0.732 | 0.691 | 0.556 | 0.873 |
